# Assay results taken from patent US20260373094A1, “MICROSTRUCTURE CONTAINING WATER-SOLUBLE AND FAT-SOLUBLE IMMUNOMODULATOR” (IUCF-HYU (INDUSTRY-UNIVERSITY COOPERATION FOUNDATION …, priority 2022, published 2026).
# Experiments:
# [1] = system: TGF-β; assay: Inhibition of TGF-β activity in melanoma cells (immunofluorescence, western blotting); type: cell-based; conditions: SD208 1 μmol/L, TGF-β 5 ng/m, 24 hours, B16F10 melanoma cells
# Protocol: 5×10^4 B16F10 melanoma cells per well of a cell culture plate were cultured in a 12-well plate using Dulbecco's Modified Eagle Medium (DMEM), and then treated with the immunoadjuvant SD208 (1 μmol/L) and the tumor marker TGF-β (5 ng/m) for 24 hours. Thereafter, cells were treated with an anti-α-tubulin Alexa 488 fluorescent antibody and 4′,6-diamidino-2-phenylindole (DAPI), and then imaged using the STELLARIS 8 STED confocal laser scanning microscope.
# In addition, changes in the expression levels of proteins activated by TGF-β were confirmed by western blotting using anti-Psmad3, anti-smad3, anti-N-cadherin, and anti-E-cadherin antibodies.
# [2] = system: PD-L1; assay: Inhibition of PD-L1 protein expression in melanoma cells (confocal, flow cytometry); type: cell-based; conditions: SD208 1 μmol/L, TGF-β 5 ng/m, 24 hours, B16F10 melanoma cells
# Protocol: 5×10^4 B16F10 melanoma cells per well of a cell culture plate were cultured in a 12-well plate using DMEM, and then treated with the immunoadjuvant SD208 (1 μmol/L) and the tumor marker TGF-β (5 ng/m) for 24 hours.
# Thereafter, the cells were imaged using a STELLARIS 8 STED confocal laser scanning microscope after treatment with an anti-PD-L1 Alexa 488 fluorescent antibody. In addition, the fluorescence expression level of the PD-L1 protein was confirmed through flow cytometry.
# [3] = system: B16F10 melanoma cells; assay: Wound healing, 2D melanoma cell culture; type: cell-based; conditions: SD208 1 μmol/L, TGF-β 5 ng/m, 24 hours, 2D culture
# Protocol: For 2D cell culture, 8×10^4 B16F10 melanoma cells were cultured in a 12-well plate using DMEM until the wells were full. Thereafter, the cells filling the wells were scratched in a cross shape to create a wound, and treated with the immunoadjuvant SD208 (1 μmol/L) and the tumor marker TGF-β (5 ng/m) for 24 hours, and the wound healing rate over time was imaged using a microscope.
# [4] = system: B16F10 melanoma cells; assay: Melanoma cell spheroid volume, 3D cell culture; type: cell-based; conditions: SD208 1 μmol/L, TGF-β 5 ng/m, eight days, 3D culture
# Protocol: For 3D cell culture, 1,000 B16F10 melanoma cells per 100 μl of DMEM were placed in a PCR tube and collected at the bottom by centrifugation. After culturing the cells in the PCR tubes for three days, they were transferred to a 96-well plate and treated with DMEM containing the immunoadjuvant SD208 (1 μmol/L) and the tumor marker TGF-β (5 ng/m). The DMEM was exchanged with fresh DMEM every three days, and the changes in the size of melanoma cell spheroids were measured for eight days using a microscope.
# [5] = Confocal imaging of fluorescent substances in composite solvent microstructure; type: physicochemical; conditions: PBS:DMSO 9:1, 20% (w/v) hyaluronic acid
# Protocol: The fluorescein isothiocyanate (FITC) fluorescent substance which is soluble only in a water-soluble solvent, and the Cy5.5 fluorescent substance, which is soluble only in a fat-soluble solvent, were added to a composite solvent containing a mixture of a water-soluble solvent (PBS) and a fat-soluble solvent (DMSO) in a ratio of 9:1 (10% (v/v) fat-soluble) and 20% (w/v) hyaluronic acid was further dissolved, and microstructures were fabricated using the method of Manufacturing Example 1. Thereafter, the composite solvent fluorescence microstructures were imaged using the STELLARIS 8 STED confocal laser scanning microscope.
Compound,effect of TGF-β [1],"expression of proteins activated by TGF-β ([1]; Psmad3, smad3, N-cadherin, E-cadherin)",fluorescence value of PD-L1 (PD-L1 expression) [2],wound healing effect by TGF-β [3],melanoma cell spheroid volume increase effect caused by TGF-β [4],distribution within the microstructure [5]
Fc1ccc(Cl)cc1-c1nc(Nc2ccncc2)c2nccnc2n1 [SD208],inhibited the effect of TGF-β,suppressing the expression of proteins activated by TGF-β,decreased,inhibited,inhibited,
Cy5.5,,,,,,evenly distributed
